Source: PubChem BioAssay (NCI)
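Interpolation was linear, between the two tested concentrations surrounding the appropriate level; five concentrations were tested over 48 hours in 96-well plates. At the GI50, growth is halved. TGI: total growth inhibition.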 Where a SMILES comes first, the peptide text is derived from it. Bridges are numbered along the chain shown (N, C = ends). [ ]: non-standard residue; d: D form. ξ: configuration not given here. ξThr(3R) = C[C@@H](O)C(N)C(=O)O; S5 = C=CCCC[C@](C)(N)C(=O)O

Legend:
Assay in all cases: NCI anticancer screen, dose series, 48 h
[1] = test system: MALME-3M melanoma
[2] = test system: HS 578T breast
[3] = test system: SK-MEL-2 melanoma
[4] = test system: OVCAR-3 ovarian
[5] = test system: SF-295 CNS
[6] = test system: OVCAR-8 ovarian
[7] = test system: SW-620 colon
[8] = test system: TK-10 renal

SMILES | GI50 [1] [µM] | TGI [1] [µM] | GI50 [2] [µM] | TGI [2] [µM] | GI50 [3] [µM] | TGI [3] [µM] | GI50 [4] [µM] | TGI [4] [µM] | GI50 [5] [µM] | TGI [5] [µM] | GI50 [6] [µM] | TGI [6] [µM] | GI50 [7] [µM] | TGI [7] [µM] | TGI [8] [µM] | GI50 [8] [µM]
O=C1c2cccnc2C(=O)c2c1c(C(=O)NCCn1ccnc1)c1ccccn21 | 0.722 | 2.14 | 5.26 | 38.7 | 2.82 | 8.3 | 2.28 | 7.43 | 2.66 | 14 | 2.48 | 8.06 | 2.55 | 11.1 |  | 
CN(C)Cc1ccc(C(C)(C)C)cc1-c1cc(C(C)(C)C)ccc1CN(C)C |  | 79.6 |  | > 100 |  | > 100 |  | > 100 |  | > 100 |  | > 100 |  | > 100 | > 100 | 
CC(=O)N[C@H](C(=O)N[C@@H](CCCNC(=N)N)C(=O)N[C@@H](CCCCN)C(=O)N[C@@H](CCCNC(=N)N)C(=O)NC(C(=O)N[C@@H](CC(C)C)C(=O)N[C@@H](CCCNC(=N)N)C(=O)N[C@@]1(C)CCC/C=C\CCC[C@@](C)(C(=O)N[C@@H](CCCNC(=N)N)C(=O)N[C@@H](CCC(=O)O)C(=O)N[C@@H](CC(C)C)C(=O)N[C@H](C(=O)N[C@@H](CCC(=O)O)C(N)=O)C(C)C)NC(=O)[C@H](CCC(N)=O)NC(=O)[C@H](CC(C)C)NC(=O)[C@H](CC(C)C)NC1=O)[C@@H](C)O)C(C)C (stereo partly drawn) (Ac-VRKR[ξThr(3R)]LR[S5]LLQ[S5]RELVE-NH2; staple (Z) 8-12) | 1.76 | 7.14 | 1.48 | 5.31 | 4.73 | 17.2 | 8.16 | 15.7 | 4.69 | 12.1 | 2.14 | 8.32 | 8.29 | 16.2 | 4.38 | 1.33
CC(c1ccccc1)[C@@H](C(=O)Nc1ccc(I)cc1F)N1C(=O)N[C@H](c2ccc(OC[C@H](O)CO)cc2)C1=O (stereo partly drawn) | 0.0025 | 0.0856 | 16.3 | > 25 | 0.158 | 1.51 | > 21.3 | > 25 | > 25 | > 25 | > 15.9 | > 25 | 1.09 | > 25 | > 25 | 4.86
CCCCCC[C@@H](C)Nc1nc2ccccc2c2occc12 |  |  | 16.5 | 40.5 | 1.32 | 20.5 | 13.5 | 38.2 | 1.99 | 19.5 | 20.7 | > 100 | 11.2 | 26.5 | 23.6 | 10
COc1c(O)cc2c(c1O)C(=O)C1=C(CCCC1)C2=O |  | 69.3 |  | 97.1 |  | > 100 |  | > 100 |  | 65.2 |  | 57.5 |  | > 100 | 74.7 | 
CCN(CC)CCC(CNc1ccnc2cc(Cl)ccc12)c1ccccc1 (stereo not drawn) | 2.05 | 3.88 | 11.5 | 43 | 1.95 | 4.06 | 14.9 | > 100 | 1.83 | 4.79 | 5.05 | 20.5 | 4.81 | 22.2 | 6.27 | 2.11
C[C@H](CS)C(=O)N1c2ccccc2C[C@H]1C(=O)O |  |  |  | > 100 |  | > 100 |  | > 100 |  | > 100 |  | > 100 |  | > 100 | > 100 | 
CCN(CC)c1ccc2nc3c4ccccc4c(=O)cc-3n(-c3ccccc3)c2c1 | 1.4 | 3.56 | 2.37 | 7.24 | 1.42 | 3.95 | 1.16 | 3.85 | 1.29 | 3.28 | 1.75 | 5.11 | 2.89 | 13.6 | 5.63 | 1.77
Cc1ccc(Cl)cc1NC(=O)c1cc2ccccc2cc1O | 0.211 | 0.692 | 0.304 | 1.96 | 0.19 | 0.707 | 0.313 | 1.02 | 1.14 | 3.57 | 0.356 | 12.4 | 0.414 | > 100 | 4.46 | 0.948
O=C(COc1ccc(OCC(=O)N2C(=O)CN(c3ccccc3)C2=S)cc1)N1C(=O)CN(c2ccccc2)C1=S | 36.7 | > 100 | > 25 | > 100 | > 25 | > 100 | > 25 | > 100 | > 25 | > 100 | > 25 | > 100 | > 25 | > 100 | > 100 | > 25
CCOc1ccc2c(c1)CN(Cc1ccc(Cl)cc1)CO2 | 14.8 | 29.5 | 18.2 | 53.7 | 18 | 34 | 21.6 | 51.1 | 13 | 27.9 | 18 | 38.3 | 16.4 | 32.1 | 64.8 | 19
C[C@@H](NC(=O)c1ncnc(N)c1Cl)c1ncc(C(=O)Nc2cc(C(F)(F)F)c(Cl)cn2)s1 | 0.135 | 0.624 | 23.4 | 98.9 | 2.08 | 8.04 | 24.6 | 70 | 13.6 | 34.7 | 15.1 | 40.8 | 11 | > 75.5 | 46.6 | 19.6
CCN(CC)c1ccc(C2NC(=O)c3ccccc3N2)cc1 (stereo not drawn) |  | > 100 |  | > 30 |  | > 100 |  | > 100 |  | > 86.3 |  | > 100 |  | > 100 | > 100 | 
Cc1nc(-c2cnc(NC(C)C)n(C)c2=O)ccc1Oc1ccnc(-c2cnn(C)c2)c1 | 12.6 | 68.8 | 12.2 | 67.6 | 12 | 52.8 | 16.1 | > 100 | 9.14 | 90.3 | 21.3 | > 100 | 5.49 | > 100 | 75.4 | 16
